# Measured values published in US20250064990A1, “METHODS OF SCREENING FOR VMAT2 INHIBITORS” (Neurocrine Biosciences, Inc., priority 2021, published 2025).
# Tests used:
# [1] = NBI-750142 plasma concentration in healthy subjects; format: in vivo; conditions: human, 18 h post single oral dose, across cohorts, approximately, read-out: NBI-750142 plasma concentrations at T2
# [2] = NBI-750142 concentration in cynomolgus monkey plasma by LC-MS/MS; format: in vivo, cynomolgus monkeys (Macaca fascicularis); conditions: for concentration at 30 min / concentration at 60 min / concentration at 90 min / concentration at 120 min / concentration at 150 min / concentration at 180 min / concentration at 1 min: cynomolgus monkey, intravenous
# Procedure: During each scan, whole blood PK samples were collected (in K2 EDTA tubes) at pre-dose (−5 min), and post-dose at 1 (end of bolus), 30, 60 (just prior to [^18F]AV-133 radiopharmaceutical administration), 90, 120, 150, 180 (end of scan) minutes after test article administration. PK samples were approximately 1 mL each (8 mL total, including pre-dose sample). PK sample collection times were relative to start of NBI-750142 bolus administration.
# NBI-750142 concentration in cynomolgus monkey plasma samples was analyzed using a qualified LC-MS/MS bioanalytical method. […] Plasma samples were processed using protein precipitation extraction with 0.1% formic acid in acetonitrile and the addition of stable deuterium isotope labeled internal standard NBI-750142-D6. Processed samples were chromatographically separated on a C18 column and coupled to a Sciex API 4000 triple quadrupole mass spectrometer.
# The method used in this study was qualified for a range of 0.250 to 250 ng/mL based on the analysis of 100 μL of plasma by LC-MS-MS. Quantitation was performed using a weighted 1/×2 linear least squares regression analysis generated from calibration standards. The protein precipitation extraction procedure began with the addition of internal standard solution (20.0 μL of approximately 100 ng/mL deuterated NBI-750142-D6). After adding 400 μL of acetonitrile/formic acid (1000:1.00), the tubes were sealed, vortexed and centrifuged. Subsequently, 100 μL of the supernatant was transferred to a new plate containing 400 μL of water/formic acid (1000:1.00). […] A triple quadrupole mass spectrometer (Sciex API 4000) equipped with TurboIonSpray source was used in the positive ion mode. Quantitation was based on multiple reaction monitoring (MRM) of m/z transitions of NBI-750142 and NBI-750142-D6.
# [3] = 0.026 mg/kg, GC786, 0.026 mg/kg i.v.
# [4] = 0.084 mg/kg, EC865, 0.084 mg/kg i.v.
# [5] = 0.26 mg/kg, GC786, 0.26 mg/kg i.v.
# [6] = 0.26 mg/kg, LC206, 0.26 mg/kg i.v.
# [7] = 0.52 mg/kg, EC865, 0.52 mg/kg i.v.
# [8] = 0.78 mg/kg, GC786, 0.78 mg/kg i.v.
smiles,measurement,setting,value
COc1cc2c(cc1OC)[C@H]1CN(C)[C@H](CC(C)(C)C)CN1CC2 [NBI-750142],concentration at 18 h,[1],0.3 to 10 ng/mL
same,Mean ng/mL NBI-750142 Concentration during PET Scan (60-180 min),"[2]; EC865, 0.084 mg/kg i.v.",6.4 ng/mL
same,Mean ng/mL NBI-750142 Concentration during PET Scan (60-180 min),"[2]; EC865, 0.52 mg/kg i.v.",37.6 ng/mL
same,Mean ng/mL NBI-750142 Concentration during PET Scan (60-180 min),"[2]; GC786, 0.026 mg/kg i.v.",2.9 ng/mL
same,ng/mL NBI-750142 at 1 min,"[2]; GC786, 0.026 mg/kg i.v., BLQ = <0.250 ng/mL",BLQ
same,Mean ng/mL NBI-750142 Concentration during PET Scan (60-180 min),"[2]; GC786, 0.26 mg/kg i.v.",12.3 ng/mL
same,Mean ng/mL NBI-750142 Concentration during PET Scan (60-180 min),"[2]; GC786, 0.78 mg/kg i.v.",74.5 ng/mL
same,Mean ng/mL NBI-750142 Concentration during PET Scan (60-180 min),"[2]; LC206, 0.26 mg/kg i.v.",35.7 ng/mL
same,concentration at 30 min,[2]; [3],2.31 ng/mL
same,concentration at 60 min,[2]; [3],2.24 ng/mL
same,concentration at 90 min,[2]; [3],2.56 ng/mL
same,concentration at 120 min,[2]; [3],2.69 ng/mL
same,concentration at 150 min,[2]; [3],3.69 ng/mL
same,concentration at 180 min,[2]; [3],3.1 ng/mL
same,concentration at 1 min,[2]; [4],108 ng/mL
same,concentration at 30 min,[2]; [4],7.42 ng/mL
same,concentration at 60 min,[2]; [4],6.04 ng/mL
same,concentration at 90 min,[2]; [4],5.91 ng/mL
same,concentration at 120 min,[2]; [4],5.85 ng/mL
same,concentration at 150 min,[2]; [4],7.34 ng/mL
same,concentration at 180 min,[2]; [4],7.07 ng/mL
same,concentration at 1 min,[2]; [5],102 ng/mL
same,concentration at 30 min,[2]; [5],18.4 ng/mL
same,concentration at 60 min,[2]; [5],10.6 ng/mL
same,concentration at 90 min,[2]; [5],6.85 ng/mL
same,concentration at 120 min,[2]; [5],13.4 ng/mL
same,concentration at 150 min,[2]; [5],15.2 ng/mL
same,concentration at 180 min,[2]; [5],15.3 ng/mL
same,concentration at 1 min,[2]; [6],119 ng/mL
same,concentration at 30 min,[2]; [6],31 ng/mL
same,concentration at 60 min,[2]; [6],26 ng/mL
same,concentration at 90 min,[2]; [6],38.3 ng/mL
same,concentration at 120 min,[2]; [6],41.1 ng/mL
same,concentration at 150 min,[2]; [6],37.7 ng/mL
same,concentration at 180 min,[2]; [6],35.2 ng/mL
same,concentration at 1 min,[2]; [7],295 ng/mL
same,concentration at 30 min,[2]; [7],45.1 ng/mL
same,concentration at 60 min,[2]; [7],36.9 ng/mL
same,concentration at 90 min,[2]; [7],35.3 ng/mL
same,concentration at 120 min,[2]; [7],36.2 ng/mL
same,concentration at 150 min,[2]; [7],38.4 ng/mL
same,concentration at 180 min,[2]; [7],41.3 ng/mL
same,concentration at 1 min,[2]; [8],186 ng/mL
same,concentration at 30 min,[2]; [8],63 ng/mL
same,concentration at 60 min,[2]; [8],65.2 ng/mL
same,concentration at 90 min,[2]; [8],69.9 ng/mL
same,concentration at 120 min,[2]; [8],75.1 ng/mL
same,concentration at 150 min,[2]; [8],76 ng/mL
same,concentration at 180 min,[2]; [8],86.5 ng/mL
